Test results from patent US12138299B2, “Aldehyde dehydrogenase producing bacteria and methods of using same” (Children's Hospital Medical Center, priority 2021, dated 2024).

Tests used:
[1] = system: SFB; test: SFB DNA in feces by qPCR; type: in vivo, mice
[2] = system: C. rodentium; test: C. rodentium infection, CFUs in stool; type: in vivo, mice; conditions: day 6 p.i.
Experimental: (§1) METHOD DETAILS C. rodentium infections Mice were orally infected with 109 colony-forming units (CFUs) of C. rodentium suspended in sterile PBS. Post-infection CFUs were measured in stool homogenized in 500 μl PBS in a Tissue Lyser II at 30 Hz for 3 min. Homogenates were serially diluted 10-fold on MacConkey agar (BD) and CFUs were counted after 16 hr incubation at 37° C., normalized to fecal weight. For RA studies, mice were orally gavaged with 300 μg RA or vehicle (DMSO) in 100 μl corn oil q.d. 5 days prior to and during the infection. For RAR inhibitor (RARi) studies, 400 μg BMS493 (Torcis Bioscience) suspended in 10% DMSO/corn oil was administered to mice via oral gavage q.o.d. over 6 days pre-infection and 6 days post-infection. For Aldh1a2 inhibition, mice were orally gavaged with 400 mg/kg of WIN 18446 (Cayman Chemical) or vehicle (DMSO) in 100 μl corn oil for 8 days q.o.d.

[3] = system: C. rodentium; test: C. rodentium in vitro culture, bacterial density (OD600); type: cell-based, Citrobacter rodentium; conditions: 1 nM-10 μM RA
[4] = system: mammalian ALDH; test: Aldehyde dehydrogenase activity in mouse tissues; type: in vivo; conditions: liver of mice treated with WIN18446, 400 mg/kg oral gavage q.o.d. 8 days
Experimental: as §1, with “For Aldh1a2 inhibition, mice were orally gavaged with 400 mg/kg of WIN 18446 (Cayman Chemical) or vehicle (DMSO) in 100 μl corn oil for 8 days q.o.d.” left out
Aldehyde dehydrogenase activity Samples were homogenized in ice-cold ALDH assay buffer (Sigma, MAK082) for 3 min at 30 Hz and spun down at 13,000×g for 10 min. ALDH activity was measured according to manufacturer's instructions (Sigma, MAK082). Briefly, 50 μl of supernatants with equal protein concentrations determined using Pierce BCA Protein Assay Kit (Thermo Scientific) were combined with ALDH substrate and acetaldehyde in 96-well plates. […] Enzymatic activity was calculated as a function of amount NADH generated over time.

[5] = system: downstream gene expression; test: Relative mRNA expression in liver of WIN18446-treated mice; type: in vivo; conditions: mice treated with WIN18446
Experimental: as §1

[6] = system: Saa1/2; test: Saa1/2 mRNA expression in intestinal organoids; type: cell-based, Murine; conditions: 1 μM WIN 18446
Experimental: Intestinal Organoids Murine organoids were generated from ileal IECs isolated from male WT C57BL/6J mice as previously described (Woo et al., 2019; Wu et al., 2020). Dissected terminal ileums (12 cm) were opened longitudinally, scraped to remove intestinal contents and outer cells, washed repeatedly in ice-cold PBS, and cut into 1 cm pieces. Ileum pieces were incubated in Chelation Buffer (2 mM EDTA in PBS) for 30 min at 4° C. with rotation. Tissues were subsequently transferred into new tubes containing Shaking Buffer (PBS, 43.3 mM sucrose, 54.9 mM sorbitol) and gently shaken by hand for 2-4 mins. Ileal crypts were resuspended and plated in Matrigel (Corning) overlaid with 500 μl organoid culture media (60% Advanced DMEM/F12 media supplemented with 10 mM HEPES, 2 mM […], 40% L-WRN conditioned media, 1×N2 supplement, 1×B27 supplement, 50 ng/mL murine EGF, and 10 μM Y-27632 ROCK inhibitor). Culture media was refreshed every 3-4 days. Organoid cultures were treated with 1 μM Aldh1a2 inhibitor WIN 18446 (Cayman Chemical) for 12 hours and then stimulated with 100 μl of SFB contents at 150 mg/ml PBS for 24 hours. For bacterial culture treatments in organoids, 100 μl of liquid cultures were directly added to organoids containing 1 μM retinol for 24 hours. After incubation, organoids were washed 3 times in PBS and lysed using the RNeasy kit (Qiagen).

[7] = system: bcALDH1A1; test: Expression of ALDH by B. cereus cultured -/+ ROL; conditions: B. cereus cultured with retinol

CC1(C)CC=C(C#Cc2ccccc2)c2cc(/C=C/c3ccc(C(=O)O)cc3)ccc21 [BMS493]
SFB colonization (SFB DNA in feces) ([1]; RARi (BMS493) treatment, 400 μg oral gavage q.o.d.): did not alter SFB colonization
C. rodentium pathogen levels (CFUs in stool) ([2]; GF mice treated with RARi): largely unaffected
Protective effect of SFB against C. rodentium (CFUs in stool) ([2]; SFB-colonized mice treated with RARi): abrogated the protective effect of SFB against C. rodentium

CC1=C(/C=C/C(C)=C/C=C/C(C)=C/C(=O)O)C(C)(C)CCC1 [RA, all-trans retinoic acid]
C. rodentium growth and viability [3]: not directly impaired
Protection against C. rodentium (CFUs in stool) ([2]; GF mice, 300 μg RA oral gavage q.d. prior to and during infection): sufficient to protect GF mice against C. rodentium
C. rodentium pathogen levels (CFUs in stool) ([2]; Nos2−/− mice, exogenous RA): did not alter pathogen levels
C. rodentium infection (CFUs in stool) ([2]; WT mice, exogenous RA): decreased C. rodentium infection
C. rodentium infection (CFUs in stool) ([2]; control dnRAR^FF mice, RA-treatment): decreased infection
RA-induced protection against C. rodentium ([2]; dnRAR^IEC mice, RA-treatment): greatly reduced

O=C(NCCCCCCCCNC(=O)C(Cl)Cl)C(Cl)Cl [WIN18446]
SFB levels in the intestine (SFB DNA in feces) ([1]; following WIN18446 administration): similar
Mammalian ALDH enzymatic activity [4]: decreased mammalian ALDH enzymatic activity
Downstream gene expression (relative mRNA in liver) [5]: decreased
Basal Saa1/2 expression in intestinal organoids [6]: decreased basal Saa1/2 expression

CC1=C(/C=C/C(C)=C/C=C/C(C)=C/CO)C(C)(C)CCC1 [retinol, all-trans retinol]
bcALDH1A1 expression by B. cereus [7]: increased bcALDH1A1 expression
